Data on 9 molecules can be found in PubChem BioAssay (NCI).

Some test systems named below: SF-268 CNS; UO-31 renal; SF-539 CNS; DU-145 prostate; OVCAR-8 ovarian; HL-60(TB) leukemia; HCC-2998 colon; KM12 colon; M14 melanoma; NCI-H460 lung.
What all share (test): NCI anticancer screen, dose series, 48 h

“And” between values parts separate entries of the source, which are not always exact repeats. Identical values can stand only once.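 Exposure lasted 48 hours, with cells grown in 96-well plates and compounds tested at five concentrations. Here, GI50 denotes the concentration required for 50% inhibition of growth. TGI: concentration producing complete growth inhibition.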

On to `CC(C)=CCC(OC(=O)C=C(C)C)C1=CC(=O)c2c(O)ccc(O)c2C1=O` (stereo not drawn), for which the GI50 is 3.35 µM in the assay with SF-268 CNS; 0.993 µM in the assay with UO-31 renal; 2.02 µM with SF-539 CNS; 1.72 µM in the assay on DU-145 prostate; 2.27 µM in the assay with OVCAR-8 ovarian; 12.7 µM in the assay with HCC-2998 colon. The values for the GI50 in the assay on KM12 colon, in the assay on M14 melanoma and in the assay on NCI-H460 lung were 6.61 µM, 3.51 µM and 5.21 µM, respectively. Besides, the TGI with SF-268 CNS was 9.83 µM and 4.06 µM; in the assay with UO-31 renal, 5.49 µM and 7.74 µM; in the assay on SF-539 CNS, 4.46 µM and 4.93 µM; in the assay with DU-145 prostate, 3.92 µM; in the assay on OVCAR-8 ovarian, 7.19 µM and 2.98 µM; with HL-60(TB) leukemia it was 1.09 µM and 0.79 µM. In addition, the TGI was 26.7 µM and 6.44 µM in the assay with HCC-2998 colon; 23.9 µM and 6.52 µM with KM12 colon; 9.57 µM in the assay with M14 melanoma; 21.1 µM and 6.53 µM in the assay on NCI-H460 lung.
As to `Cc1nc(Nc2ccccn2)sc1C(=O)/C=C/c1ccc(Cl)cc1`, the GI50 in the assay with SF-268 CNS is 0.974 µM; with UO-31 renal, 0.662 µM; in the assay on SF-539 CNS, 0.252 µM; with DU-145 prostate, 0.383 µM; in the assay on OVCAR-8 ovarian it was 0.472 µM; in the assay with HL-60(TB) leukemia it was 0.353 µM. Further, the GI50 with HCC-2998 colon was 0.383 µM; in the assay with KM12 colon, 0.377 µM; in the assay with M14 melanoma, 0.342 µM; in the assay with NCI-H460 lung, 0.353 µM. Besides, the TGI in the assay on SF-268 CNS is more than 100 µM; with UO-31 renal it was 15 µM; with SF-539 CNS, 0.812 µM; with DU-145 prostate it was more than 71.5 µM; in the assay with OVCAR-8 ovarian, more than 100 µM; in the assay on HCC-2998 colon, 9.62 µM. Besides, the results for the TGI in the assay with KM12 colon, in the assay on M14 melanoma and with NCI-H460 lung were 15.9 µM, more than 67.1 µM and more than 100 µM, respectively.
`CC1=Nc2ccccc2/C1=C\c1c(C)[nH]c2ccccc12`: the TGI in the assay on SF-268 CNS came out at 28.6 µM; with UO-31 renal it was 27.5 µM; with SF-539 CNS it was 77.3 µM; in the assay on DU-145 prostate, 31.2 µM; in the assay with OVCAR-8 ovarian it was 27 µM; in the assay with HL-60(TB) leukemia, 50.2 µM. For the same molecule, the TGI with HCC-2998 colon is 30.1 µM; in the assay on KM12 colon, 26 µM; in the assay on M14 melanoma it was more than 100 µM; in the assay with NCI-H460 lung, 44.6 µM.
Turning to `O=C1CC(c2[nH]nc3ccccc23)C(=O)N1c1ccccc1` (stereo not drawn), the TGI in the assay with SF-268 CNS was more than 100 µM; in the assay on UO-31 renal, more than 100 µM; in the assay on SF-539 CNS, more than 100 µM; in the assay with DU-145 prostate, more than 100 µM; in the assay with OVCAR-8 ovarian, more than 100 µM; in the assay on HL-60(TB) leukemia, 70.4 µM. For the same molecule, the TGI with HCC-2998 colon, in the assay on KM12 colon, in the assay on M14 melanoma and with NCI-H460 lung was more than 100 µM in each case.
On to `C=C1CCC2(C#N)[C@H]3[C@H](CC[C@@H]2C)[C@@H](C)C[C@@H](CC(C)(C)NC(=O)CN2CCC2=O)[C@H]13` (stereo partly drawn), for which the GI50 with SF-268 CNS was 14.2 µM; in the assay with UO-31 renal, 10.2 µM; in the assay on SF-539 CNS, 5.98 µM; in the assay on DU-145 prostate it was 12.1 µM; in the assay with OVCAR-8 ovarian it was 4.94 µM; in the assay on HL-60(TB) leukemia, 5.05 µM. Moreover, the GI50 is 7 µM in the assay on HCC-2998 colon, 3.36 µM in the assay with KM12 colon, 4.56 µM with M14 melanoma and 7.81 µM with NCI-H460 lung. Moreover, the TGI turned out to be 42.3 µM in the assay on SF-268 CNS; 77.1 µM in the assay on UO-31 renal; 19.4 µM in the assay on SF-539 CNS; 41.1 µM with DU-145 prostate; 38.1 µM in the assay with OVCAR-8 ovarian; 37 µM in the assay on HL-60(TB) leukemia. In addition, the TGI in the assay on HCC-2998 colon came out at 22.8 µM; in the assay on KM12 colon it was 15 µM; in the assay on M14 melanoma, 17.8 µM; in the assay with NCI-H460 lung, 20.5 µM.
For the molecule `CCN(c1cc(-c2ccc(CN3CCOCC3)cc2)cc(C(=O)NCc2c(C)cc(C)[nH]c2=O)c1C)C1CCOCC1`, the GI50 with SF-268 CNS was 26.2 µM; in the assay on UO-31 renal it was 14.9 µM; in the assay on SF-539 CNS it was 16.3 µM; with DU-145 prostate it was 40.6 µM; in the assay on OVCAR-8 ovarian, 37.9 µM; with HL-60(TB) leukemia it was 17.5 µM. The GI50 was 20.4 µM with HCC-2998 colon, 19.7 µM in the assay on KM12 colon, 19.9 µM in the assay with M14 melanoma and 25.5 µM in the assay on NCI-H460 lung. Besides, the TGI with SF-268 CNS was more than 93.6 µM; in the assay with UO-31 renal, more than 51.3 µM; with SF-539 CNS, 33.2 µM; in the assay on DU-145 prostate it was more than 100 µM; in the assay on OVCAR-8 ovarian, more than 100 µM; in the assay on HL-60(TB) leukemia, 56.2 µM. Also, the TGI with HCC-2998 colon is 49.7 µM; in the assay with KM12 colon, 52 µM; in the assay with M14 melanoma, 42.3 µM; in the assay on NCI-H460 lung, more than 66.8 µM.
Turning to `COc1cc2c(cc1O)CC1c3c(cc(O)c(OC)c3-2)CCN1C` (stereo not drawn), the TGI with SF-268 CNS, with UO-31 renal, with SF-539 CNS, in the assay on DU-145 prostate, with OVCAR-8 ovarian and in the assay with HL-60(TB) leukemia was more than 100 µM each time. Besides, the TGI in the assay on HCC-2998 colon, with KM12 colon, with M14 melanoma and with NCI-H460 lung was more than 100 µM throughout.
For the molecule `c1ccc2c(-c3nc(-c4c[nH]c5ccncc45)cs3)c[nH]c2c1`, the GI50 with SF-268 CNS was 2.51 µM; in the assay with UO-31 renal it was 1.21 µM; in the assay on SF-539 CNS it was 1.79 µM; in the assay with DU-145 prostate it was 3.36 µM; in the assay on OVCAR-8 ovarian it was 1.97 µM; in the assay on HL-60(TB) leukemia it was 2.02 µM. In addition, the GI50 is 1.87 µM with HCC-2998 colon, 2.02 µM in the assay on KM12 colon, 1.7 µM in the assay with M14 melanoma and 1.76 µM in the assay on NCI-H460 lung. For the same molecule, the TGI with SF-268 CNS was 7.96 µM; with UO-31 renal, 2.62 µM; in the assay on SF-539 CNS it was 3.29 µM; in the assay on DU-145 prostate, 11.3 µM; with OVCAR-8 ovarian, 4.33 µM; with HL-60(TB) leukemia, 4.73 µM. The TGI in the assay on HCC-2998 colon turned out to be 3.42 µM; in the assay with KM12 colon, 4.4 µM; in the assay on M14 melanoma, 3.46 µM; with NCI-H460 lung, 3.58 µM.
On to `O=c1cc(N/N=C/c2ccc(F)cc2)c2cc(Cl)ccc2[nH]1`, for which the GI50 was 33.6 µM with SF-268 CNS; 21.9 µM in the assay on UO-31 renal; 23.6 µM with SF-539 CNS; 33.9 µM in the assay on DU-145 prostate; 19.8 µM in the assay on OVCAR-8 ovarian; 18.8 µM in the assay on HL-60(TB) leukemia. In addition, the GI50 is 32.4 µM with HCC-2998 colon, 22 µM in the assay on KM12 colon, 10.2 µM in the assay on M14 melanoma and 20.3 µM in the assay on NCI-H460 lung. In addition, the TGI with SF-268 CNS was more than 100 µM; in the assay with UO-31 renal it was more than 100 µM; in the assay on SF-539 CNS, 78.2 µM; with DU-145 prostate it was more than 100 µM; in the assay on OVCAR-8 ovarian, more than 100 µM; with HL-60(TB) leukemia, 50.9 µM. The TGI in the assay with HCC-2998 colon, in the assay on KM12 colon, with M14 melanoma and in the assay with NCI-H460 lung was more than 100 µM in each case.
